Laboratory results published in US8940724B2, “Quinoline derivitives and their uses” (Amgen Inc., priority 2009, dated 2015).

Experiments:
[1] = test system: mouse model of rheumatoid arthritis; conditions: in vivo; cited from earlier work
[2] = test system: model of systemic lupus erythematosis; conditions: in vivo; cited from earlier work
PI3Kδ = target: T1, PI3Kδ (Homo sapiens, UniProt O00329); assay: PI3Kδ Alphascreen assay; type: biochemical
T1 construct: Full length p110 subunits of PI3k α, β and δ, N-terminally labeled with polyHis tag; polyHis (N); made in house; host or cells: Sf9 insect cells (baculovirus)

p110δ = target: T2, p110δ (Homo sapiens, UniProt O00329); conditions: cited from earlier work
T2 sequence (O00329 1-1044): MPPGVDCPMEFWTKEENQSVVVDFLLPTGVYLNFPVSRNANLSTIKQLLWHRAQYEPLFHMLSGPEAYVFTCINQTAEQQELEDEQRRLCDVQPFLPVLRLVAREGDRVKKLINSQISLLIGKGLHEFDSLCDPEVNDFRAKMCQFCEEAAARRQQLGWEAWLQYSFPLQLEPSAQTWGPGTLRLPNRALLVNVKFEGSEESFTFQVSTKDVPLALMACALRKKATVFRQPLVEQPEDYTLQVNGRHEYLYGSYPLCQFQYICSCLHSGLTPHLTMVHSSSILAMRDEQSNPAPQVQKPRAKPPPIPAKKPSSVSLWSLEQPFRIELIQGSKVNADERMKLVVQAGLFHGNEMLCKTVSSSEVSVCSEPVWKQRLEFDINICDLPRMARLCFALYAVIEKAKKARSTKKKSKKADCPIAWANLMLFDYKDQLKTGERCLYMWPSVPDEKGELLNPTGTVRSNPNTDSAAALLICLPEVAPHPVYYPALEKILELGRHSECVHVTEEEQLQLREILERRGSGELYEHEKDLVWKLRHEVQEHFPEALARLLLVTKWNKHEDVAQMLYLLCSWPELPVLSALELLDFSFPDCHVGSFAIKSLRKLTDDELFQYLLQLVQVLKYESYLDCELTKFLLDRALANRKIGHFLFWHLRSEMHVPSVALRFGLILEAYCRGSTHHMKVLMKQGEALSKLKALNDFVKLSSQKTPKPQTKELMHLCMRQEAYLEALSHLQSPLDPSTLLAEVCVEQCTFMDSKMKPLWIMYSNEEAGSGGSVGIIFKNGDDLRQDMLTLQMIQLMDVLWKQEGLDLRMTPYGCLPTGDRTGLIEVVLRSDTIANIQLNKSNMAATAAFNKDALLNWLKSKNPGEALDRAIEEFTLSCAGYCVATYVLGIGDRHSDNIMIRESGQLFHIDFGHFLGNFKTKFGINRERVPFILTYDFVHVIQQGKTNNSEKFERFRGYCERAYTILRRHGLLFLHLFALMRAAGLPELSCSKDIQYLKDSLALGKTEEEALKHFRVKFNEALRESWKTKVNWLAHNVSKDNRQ

protein kinases = conditions: cited from earlier work
[3] = test system: ovalbumin-induced airway inflammation; conditions: cited from earlier work

T1 sequence (P27986 whole entry partner, one chain of several): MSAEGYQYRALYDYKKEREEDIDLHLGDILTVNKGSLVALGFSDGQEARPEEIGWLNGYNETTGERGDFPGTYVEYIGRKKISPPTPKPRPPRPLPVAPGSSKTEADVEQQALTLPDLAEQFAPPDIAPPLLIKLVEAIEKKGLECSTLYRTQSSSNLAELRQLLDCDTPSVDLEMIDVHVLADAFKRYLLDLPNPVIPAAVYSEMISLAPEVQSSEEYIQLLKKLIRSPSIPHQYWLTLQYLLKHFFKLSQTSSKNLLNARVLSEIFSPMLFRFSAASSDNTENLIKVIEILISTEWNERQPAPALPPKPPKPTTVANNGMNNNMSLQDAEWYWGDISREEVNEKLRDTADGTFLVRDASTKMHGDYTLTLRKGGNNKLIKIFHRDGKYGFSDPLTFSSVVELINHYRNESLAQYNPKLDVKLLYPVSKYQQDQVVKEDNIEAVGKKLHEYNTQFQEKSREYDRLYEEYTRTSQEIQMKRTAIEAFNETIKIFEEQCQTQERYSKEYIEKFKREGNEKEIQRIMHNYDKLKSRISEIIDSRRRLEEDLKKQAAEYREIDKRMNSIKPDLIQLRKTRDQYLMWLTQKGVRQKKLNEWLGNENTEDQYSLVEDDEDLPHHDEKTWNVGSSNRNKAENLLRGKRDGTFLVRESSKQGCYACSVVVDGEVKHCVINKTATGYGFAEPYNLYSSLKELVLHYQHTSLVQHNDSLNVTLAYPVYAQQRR

Row | SMILES | Ki (PI3Kδ) [µM] | also measured
1 | O=C1NC(=O)/C(=C\c2ccc3nccnc3c2)S1 [AS 605240] |  | efficacy in a mouse model of rheumatoid arthritis [1]: efficacious; onset of disease in a model of systemic lupus erythematosis [2]: delay onset of disease
2 | COC(=O)N1CCN(c2nc3cc(F)cc(F)c3c(Nc3cncc(N4CCOCC4)c3)c2C)[C@H](C)C1 [methyl (3R)-4-(5,7-difluoro-3-methyl-4-((5-(4-morpholinyl)-3-pyridinyl)amino)-2-quinolinyl)-3-methyl-1-piperazinecarboxylate] | 0.0318 | 
3 | Cc1c(-c2ccc(N3CCN(C)CC3)nc2)nc2cc(F)cc(F)c2c1Nc1cc(N2CCOCC2)cnc1N1CCOCC1 [N-(2,5-di-4-morpholinyl-3-pyridinyl)-5,7-difluoro-3-methyl-2-(6-(4-methyl-1-piperazinyl)-3-pyridinyl)-4-quinolinamine] | 0.295 | 
4 | COc1cncc(-c2ncc(N3CCOCC3)cc2Nc2c(C)c(-c3ccccn3)nc3cc(F)cc(F)c23)c1 [N-(5,7-difluoro-3-methyl-2-(2-pyridinyl)-4-quinolinyl)-5′-methoxy-5-(4-morpholinyl)-2,3′-bipyridin-3-amine] | 0.000512 | 
5 | Cc1c(-c2ccccn2)nc2cc(F)cc(F)c2c1Nc1cc(N2CCOCC2)cnc1-c1ccc(OC(F)F)cc1 [N-(2-(4-(difluoromethoxy)phenyl)-5-(4-morpholinyl)-3-pyridinyl)-5,7-difluoro-3-methyl-2-(2-pyridinyl)-4-quinolinamine] | 0.00125 | 
6 | Cc1c(N2CCN(C(=O)C3CCCC3)CC2)nc2cc(F)cc(F)c2c1Nc1cncc(N2CCOCC2)c1 [2-(4-(cyclopentylcarbonyl)-1-piperazinyl)-5,7-difluoro-3-methyl-N-(5-(4-morpholinyl)-3-pyridinyl)-4-quinolinamine] | 0.042 | 
7 | Cc1c(N2CCN(S(=O)(=O)C3CCCC3)CC2)nc2cc(F)cc(F)c2c1Nc1cncc(N2CCOCC2)c1 [2-(4-(cyclopentylsulfonyl)-1-piperazinyl)-5,7-difluoro-3-methyl-N-(5-(4-morpholinyl)-3-pyridinyl)-4-quinolinamine] | 0.051 | 
8 | Cc1ccccc1-n1c(Cn2cnc3c(N)ncnc32)nc2cccc(C)c2c1=O [IC87114] |  | inhibits p110δ (p110δ): high nanomolar range (triple digit); activity against any protein kinases tested (protein kinases): no activity; inflammation and disease in a murine model of asthma [3]: significantly ameliorate inflammation and disease
9 | Cc1c(N2CCN(C(=O)OC(C)(C)C)CC2)nc2cc(F)cc(F)c2c1Nc1cc(N2CCOCC2)cnc1N1CCOCC1 [tert-butyl 4-(4-((2,5-di-4-morpholinyl-3-pyridinyl)amino)-5,7-difluoro-3-methyl-2-quinolinyl)-1-piperazinecarboxylate] | 0.0341 | 
10 | Cc1c(N2CCC2=O)nc2cc(F)cc(F)c2c1Nc1cncc(N2CCOCC2)c1 [1-(5,7-difluoro-3-methyl-4-((5-(4-morpholinyl)-3-pyridinyl)-amino)-2-quinolinyl)-2-azetidinone] | 0.0272 | 
11 | Cc1c(N2CC(C)(C)CC2=O)nc2cc(F)cc(F)c2c1Nc1cncc(N2CCOCC2)c1 [1-(5,7-difluoro-3-methyl-4-((5-(4-morpholinyl)-3-pyridinyl)-amino)-2-quinolinyl)-4,4-dimethyl-2-pyrrolidinone] | 0.0214 | 
12 | COc1cc(-c2nc3cc(F)cc(F)c3c(Nc3cncc(N4CCOCC4)c3)c2C)ccn1 [5,7-difluoro-2-(2-methoxy-4-pyridinyl)-3-methyl-N-(5-(4-morpholinyl)-3-pyridinyl)-4-quinolinamine] | 0.15 | 
13 | Cc1c(N2CCN(C(=O)OC(C)(C)C)[C@@H](C)C2)nc2cc(F)cc(F)c2c1Nc1cncc(N2CCOCC2)c1 [tert-butyl (2S)-4-(5,7-difluoro-3-methyl-4-((5-(4-morpholinyl)-3-pyridinyl)amino)-2-quinolinyl)-2-methyl-1-piperazinecarboxylate] | 0.112 | 
14 | CNC(=O)[C@H]1CCCN1c1nc2cc(F)cc(F)c2c(Nc2cncc(N3CCOCC3)c2)c1C [1-(5,7-difluoro-3-methyl-4-((5-(4-morpholinyl)-3-pyridinyl)-amino)-2-quinolinyl)-N-methyl-D-prolinamide] | 0.0104 | 
15 | Cc1c(N2CCN(C(=O)C3CCOCC3)CC2)nc2cc(F)cc(F)c2c1Nc1cncc(N2CCOCC2)c1 [5,7-difluoro-3-methyl-N-(5-(4-morpholinyl)-3-pyridinyl)-2-(4-(tetrahydro-2H-pyran-4-ylcarbonyl)-1-piperazinyl)-4-quinolinamine] | 0.0557 | 
16 | Cc1c(N2CCN(C(=O)OC(C)C)CC2)nc2cc(F)cc(F)c2c1Nc1cncc(N2CCOCC2)c1 [1-methylethyl 4-(5,7-difluoro-3-methyl-4-((5-(4-morpholinyl)-3-pyridinyl)amino)-2-quinolinyl)-1-piperazinecarboxylate] | 0.0388 | 
17 | Cc1ccc(-c2nc3cc(F)cc(F)c3c(Nc3cc(N4CCOCC4)cnc3N3CCOCC3)c2C)cc1C [2-(3,4-dimethylphenyl)-N-(2,5-di-4-morpholinyl-3-pyridinyl)-5,7-difluoro-3-methyl-4-quinolinamine] | 0.101 | 
18 | Cc1c(N2CCN(CC(F)(F)F)CC2)nc2cc(F)cc(F)c2c1Nc1cncc(N2CCOCC2)c1 [5,7-difluoro-3-methyl-N-(5-(4-morpholinyl)-3-pyridinyl)-2-(4-(2,2,2-trifluoroethyl)-1-piperazinyl)-4-quinolinamine] | 0.0407 | 
19 | Cc1c(N2CCN(c3ccccc3)CC2)nc2cc(F)cc(F)c2c1Nc1cncc(N2CCOCC2)c1 [5,7-difluoro-3-methyl-N-(5-(4-morpholinyl)-3-pyridinyl)-2-(4-phenyl-1-piperazinyl)-4-quinolinamine] | 0.0781 | 
20 | Cc1c(-c2cncc(S(C)(=O)=O)c2)nc2cc(F)cc(F)c2c1Nc1cc(N2CCOCC2)cnc1N1CCOCC1 [N-(2,5-di-4-morpholinyl-3-pyridinyl)-5,7-difluoro-3-methyl-2-(5-(methylsulfonyl)-3-pyridinyl)-4-quinolinamine] | 0.0838 | 
